The values below come from US20100120921A1, “RENIN INHIBITORS FOR TREATMENT OF HYPERTENSION IN PATIENTS WITH HIGH SODIUM DIET” (NOVARTIS AG, priority 2007, published 2010).

The test relates to patients with systolic hypertension. In words: 12-week randomized, open-label, multi-center, cross-over clinical study of aliskiren 300 mg on high versus low sodium diet (24-hour ABPM). Type of test: in vivo, human. The settings on record: aliskiren 300 mg once daily; 4 weeks high sodium (≧200 mmol/day) vs 4 weeks low sodium (≦100 mmol/day) diet; non-inferiority margin 4 mmHg. The method, then:
The effect of Aliskiren (300 mg) on reduction in mean 24-hour ambulatory blood pressure systolic hypertensive patients using low and high sodium diets is examined in a 12-week, randomized, open-label, multi-center, cross-over study. Subjects with systolic hypertension have a 2-4 week washout of their current antihypertensive medications. Patients who meet 8-hour ABPM criteria at week 0 (ABPM mean daytime systolic blood pressure ≧135 mmHg and <160 mmHg) are randomized to either a high sodium (≧200 mmol/day) or low sodium (≦100 mmol/day) diet and will be dispensed aliskiren 300 mg.
After 2 and 4 weeks on the assigned sodium level diet, 24-hour urine (Bentley, Brook 2006) collections for sodium and creatinine are collected and measured to confirm adherence to the diet. After 4 weeks on the assigned sodium level diet, 24-hour ABPM is measured. Patients are then crossed over to the other level sodium diet. Those patients who had high sodium diet for the first four weeks start having low sodium diet for the next 4 weeks and vice versa. After 2 and 4 weeks on the new diet, 24-hour urine collections for sodium and creatinine are again collected and measured to confirm adherence to the diet. After 4 weeks on the newly assigned sodium level diet, 24-hour ABPM are measured. […]

Structures are written as SMILES. Entries after “also recorded” stand apart in the source; their conditions may differ.

As for `COCCCOc1cc(C[C@@H](C[C@H](N)[C@@H](O)C[C@H](C(=O)NCC(C)(C)C(N)=O)C(C)C)C(C)C)ccc1OC` [aliskiren, 2(S),4(S),5(S),7(S)—N-(3-amino-2,2-dimethyl-3-oxopropyl)-2,7-di(1-methylethyl)-4-hydroxy-5-amino-8-[4-methoxy-3-(3-methoxy-propoxy)phenyl]-octanamide], the “antihypertensive effect (change in mean 24-hour ambulatory blood pressure) on high versus low sodium diet” value is reported as “the same (within the BP boundaries indicated) regardless of whether the subject ingests a high or a low sodium diet; also recorded: reduce blood pressure efficiently irrespective of the sodium intake”.
